From patent US20240197805A1, “COMPOSITE FOR RELIEVING […], PREPARATION METHOD THEREFOR, USE THEREOF, DRUG, FOOD AND HEALTH-CARE PRODUCT” (INFINITUS ( CHINA ) COMPANY LTD., priority 2022, published 2024)

Columns and labels:
Format in all cases: in vivo
[1] = system: ICR mice; assay: Pentobarbital sodium subthreshold dose hypnosis test; settings: mice gavaged 14 days (250 mg/kg samples; GABA 100 mg/kg); pentobarbital sodium 30 mg/kg BW i.p.; animals asleep within 30 min; *p<0.05, **p<0.01 vs blank group
Source text: (§1) • 1. Principle: a pentobarbital sodium subthreshold dose hypnosis test, a sleep latency test and a sleep extension time change test are common test methods for a sleep improvement performance of a health-care food. The method takes a disappearance of a righting reflex as an observation index and is specifically represented as follows: when a mouse is placed on the back to lie, if the mouse cannot turn over for more than 60 s, the righting reflex is considered to disappear, and the mouse falls sleep; if a body position can be righted immediately (within 5 s), the righting reflex is considered to be recovered and the mouse is in a waking state; and a time from the disappearance of the righting reflex to the recovery is an animal sleeping time. • 2. Materials: ICR mice come from the Experimental Animal Center of Zhejiang Academy of Medical Sciences and have the production license number of SCXK (Zhe). The mice are all male, weigh 18 to 22 g and are divided into 10 mice/group. The mice are adapted to the environment in an SPF animal room for 5 to 7 days, wherein environment conditions of the SPF animal room are as follows: a temperature of 20 to 26° C., a humidity of 40% to 70%, and light and shade alternation time of 12 h/12 h. • 3. […]

[2] = system: ICR mice; assay: Sleep latency experiment (pentobarbital sodium); settings: mice gavaged 14 days (250 mg/kg samples; GABA 100 mg/kg); pentobarbital sodium 200 mg/kg BW i.p.; *p<0.05 vs blank group
Source text: as §1

[3] = system: ICR mice; assay: Sleep extension time change experiment (pentobarbital sodium); settings: mice gavaged 14 days (250 mg/kg samples; GABA 100 mg/kg); pentobarbital sodium 30 mg/kg BW i.p.; *p<0.05, **p<0.01 vs blank group
Source text: as §1

Compound: NCCCC(=O)O [Positive control, y-aminobutyric acid]
- Sleeping rate [1]: 90.00** %
- Sleep latency x ± s [2]: 5.60 ± 1.48* min
- Sleeping time x ± s [3]: 92.36 ± 16.67** min
